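Cells were grown in 96-well plates and exposed to each compound for 48 hours at five concentrations; endpoints were interpolated linearly between bracketing concentrations, or set to the highest concentration if not reached. GI50 = concentration required for 50% inhibition of growth. TGI: concentration producing complete growth inhibition.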
How the values were obtained:
Assay in all cases: growth of human tumour cells (NCI), 48 h
786-0 renal = tested on: 786-0 renal
A498 renal = tested on: A498 renal
A549 NSCLC = tested on: A549 NSCLC
ACHN renal = tested on: ACHN renal
BT-549 breast = tested on: BT-549 breast
CAKI-1 renal = tested on: CAKI-1 renal
CCRF-CEM leukemia = tested on: CCRF-CEM leukemia
COLO 205 colon = tested on: COLO 205 colon
DU-145 prostate = tested on: DU-145 prostate
EKVX NSCLC = tested on: EKVX NSCLC
HCC-2998 colon = tested on: HCC-2998 colon
HCT-116 colon = tested on: HCT-116 colon
HCT-15 colon = tested on: HCT-15 colon
HL-60(TB) leukemia = tested on: HL-60(TB) leukemia
HOP-62 NSCLC = tested on: HOP-62 NSCLC
HOP-92 NSCLC = tested on: HOP-92 NSCLC
HS 578T breast = tested on: HS 578T breast
HT29 colon = tested on: HT29 colon
IGROV1 ovarian = tested on: IGROV1 ovarian
KM12 colon = tested on: KM12 colon
LOX IMVI melanoma = tested on: LOX IMVI melanoma
M14 melanoma = tested on: M14 melanoma
MALME-3M melanoma = tested on: MALME-3M melanoma
MCF7 breast = tested on: MCF7 breast
MDA-MB-231 breast = tested on: MDA-MB-231 breast
MDA-MB-435 = tested on: MDA-MB-435
MOLT-4 leukemia = tested on: MOLT-4 leukemia
NCI-H226 lung = tested on: NCI-H226 lung
NCI-H23 lung = tested on: NCI-H23 lung
NCI-H460 lung = tested on: NCI-H460 lung
NCI-H522 lung = tested on: NCI-H522 lung
NCI/ADR-RES ovarian = tested on: NCI/ADR-RES ovarian
OVCAR-3 ovarian = tested on: OVCAR-3 ovarian
OVCAR-4 ovarian = tested on: OVCAR-4 ovarian
OVCAR-5 ovarian = tested on: OVCAR-5 ovarian
OVCAR-8 ovarian = tested on: OVCAR-8 ovarian
PC-3 prostate = tested on: PC-3 prostate
RPMI-8226 leukemia = tested on: RPMI-8226 leukemia
SF-268 CNS = tested on: SF-268 CNS
SF-295 CNS = tested on: SF-295 CNS
SF-539 CNS = tested on: SF-539 CNS
SK-MEL-2 melanoma = tested on: SK-MEL-2 melanoma
SK-MEL-28 melanoma = tested on: SK-MEL-28 melanoma
SK-MEL-5 melanoma = tested on: SK-MEL-5 melanoma
SK-OV-3 ovarian = tested on: SK-OV-3 ovarian
SN12C renal = tested on: SN12C renal
SNB-19 CNS = tested on: SNB-19 CNS
SNB-75 CNS = tested on: SNB-75 CNS
SR leukemia = tested on: SR leukemia
SW-620 colon = tested on: SW-620 colon
T-47D breast = tested on: T-47D breast
TK-10 renal = tested on: TK-10 renal
U251 CNS = tested on: U251 CNS
UACC-257 melanoma = tested on: UACC-257 melanoma
UACC-62 melanoma = tested on: UACC-62 melanoma
UO-31 renal = tested on: UO-31 renal
K-562 leukemia = tested on: K-562 leukemia

Oc1ccccc1C=Nc1ccc(Oc2ccc(Cl)cc2)c(Cl)c1
TGI (786-0 renal): 98.7 µM
TGI (A498 renal): 33.7 µM
TGI (A549 NSCLC): 58.7 µM
TGI (ACHN renal): 88.3 µM
TGI (BT-549 breast): 44.4 µM
TGI (CAKI-1 renal): 95.4 µM
TGI (CCRF-CEM leukemia): 54.3 µM
TGI (COLO 205 colon): 41.1 µM
TGI (DU-145 prostate): > 100 µM
TGI (EKVX NSCLC): 52 µM
TGI (HCC-2998 colon): 45.7 µM
TGI (HCT-116 colon): 40.1 µM
TGI (HCT-15 colon): 36.6 µM
TGI (HL-60(TB) leukemia): 65.4 µM
TGI (HOP-62 NSCLC): 34.7 µM
TGI (HOP-92 NSCLC): 41.4 µM
TGI (HS 578T breast): 52.5 µM
TGI (HT29 colon): 40.1 µM
TGI (IGROV1 ovarian): > 100 µM
TGI (KM12 colon): 65.1 µM
TGI (LOX IMVI melanoma): 41 µM
TGI (M14 melanoma): 46 µM
TGI (MALME-3M melanoma): 44.2 µM
TGI (MCF7 breast): > 100 µM
TGI (MDA-MB-231 breast): 40.4 µM
TGI (MDA-MB-435): > 100 µM
TGI (MOLT-4 leukemia): > 100 µM
TGI (NCI-H226 lung): 93.9 µM
TGI (NCI-H23 lung): 45.4 µM
TGI (NCI-H460 lung): 54.5 µM
TGI (NCI-H522 lung): 31.6 µM
TGI (NCI/ADR-RES ovarian): 47.5 µM
TGI (OVCAR-3 ovarian): 38.5 µM
TGI (OVCAR-4 ovarian): 66.2 µM
TGI (OVCAR-5 ovarian): 79.5 µM
TGI (OVCAR-8 ovarian): 57.9 µM
TGI (PC-3 prostate): 53.6 µM
TGI (RPMI-8226 leukemia): 81.1 µM
TGI (SF-268 CNS): 43.5 µM
TGI (SF-295 CNS): 48.8 µM
TGI (SF-539 CNS): 58.7 µM
TGI (SK-MEL-2 melanoma): 32.4 µM
TGI (SK-MEL-28 melanoma): 72.5 µM
TGI (SK-MEL-5 melanoma): 50.9 µM
TGI (SK-OV-3 ovarian): 71.2 µM
TGI (SN12C renal): 41.4 µM
TGI (SNB-19 CNS): 49.6 µM
TGI (SNB-75 CNS): 58.6 µM
TGI (SR leukemia): 69.3 µM
TGI (SW-620 colon): > 100 µM
TGI (T-47D breast): 40.1 µM
TGI (TK-10 renal): > 100 µM
TGI (U251 CNS): 50.5 µM
TGI (UACC-257 melanoma): > 100 µM
TGI (UACC-62 melanoma): 49.6 µM
TGI (UO-31 renal): 24.2 µM

Cc1sc2ncnc(Sc3nc4ccccc4[nH]3)c2c1C
GI50 (786-0 renal): 37.3 µM
TGI (786-0 renal): > 100 µM
GI50 (A498 renal): 12.2 µM
TGI (A498 renal): 52.9 µM
GI50 (A549 NSCLC): 21.5 µM
TGI (A549 NSCLC): 73 µM
GI50 (ACHN renal): 24.4 µM
TGI (ACHN renal): > 100 µM
GI50 (BT-549 breast): 27.2 µM
TGI (BT-549 breast): > 100 µM
GI50 (CAKI-1 renal): 25.4 µM
TGI (CAKI-1 renal): > 100 µM
GI50 (CCRF-CEM leukemia): 21.1 µM
TGI (CCRF-CEM leukemia): > 100 µM
GI50 (COLO 205 colon): 33.5 µM
TGI (COLO 205 colon): > 100 µM
GI50 (DU-145 prostate): 20.8 µM
TGI (DU-145 prostate): 72.4 µM
GI50 (HCC-2998 colon): 50.4 µM
TGI (HCC-2998 colon): > 100 µM
GI50 (HCT-116 colon): 24 µM
TGI (HCT-116 colon): > 100 µM
GI50 (HCT-15 colon): 28.2 µM
TGI (HCT-15 colon): > 100 µM
GI50 (HL-60(TB) leukemia): 22.7 µM
TGI (HL-60(TB) leukemia): 59.4 µM
GI50 (HOP-62 NSCLC): 18.7 µM
TGI (HOP-62 NSCLC): 52 µM
GI50 (HOP-92 NSCLC): 13.8 µM
TGI (HOP-92 NSCLC): 63.8 µM
GI50 (HS 578T breast): 18.4 µM
TGI (HS 578T breast): 67.6 µM
GI50 (HT29 colon): 21.9 µM
TGI (HT29 colon): 53.6 µM
GI50 (IGROV1 ovarian): 33.2 µM
TGI (IGROV1 ovarian): > 100 µM
GI50 (K-562 leukemia): 23.4 µM
TGI (K-562 leukemia): 97.3 µM
GI50 (KM12 colon): 27.2 µM
TGI (KM12 colon): > 100 µM
GI50 (LOX IMVI melanoma): 21.2 µM
TGI (LOX IMVI melanoma): > 100 µM
GI50 (M14 melanoma): 41.1 µM
TGI (M14 melanoma): > 100 µM
GI50 (MALME-3M melanoma): 15.6 µM
TGI (MALME-3M melanoma): 80.1 µM
GI50 (MCF7 breast): 13.6 µM
TGI (MCF7 breast): 67 µM
GI50 (MDA-MB-231 breast): 17.4 µM
TGI (MDA-MB-231 breast): 94.3 µM
GI50 (MDA-MB-435): 26.3 µM
TGI (MDA-MB-435): > 100 µM
GI50 (MOLT-4 leukemia): 22.2 µM
TGI (MOLT-4 leukemia): 88.7 µM
GI50 (NCI-H226 lung): 27.2 µM
TGI (NCI-H226 lung): > 100 µM
GI50 (NCI-H23 lung): 30.4 µM
TGI (NCI-H23 lung): > 100 µM
GI50 (NCI-H460 lung): 27.6 µM
TGI (NCI-H460 lung): > 100 µM
GI50 (NCI-H522 lung): 21.5 µM
TGI (NCI-H522 lung): 61.2 µM
GI50 (NCI/ADR-RES ovarian): 29.5 µM
TGI (NCI/ADR-RES ovarian): > 100 µM
GI50 (OVCAR-3 ovarian): 23.3 µM
TGI (OVCAR-3 ovarian): 60 µM
GI50 (OVCAR-4 ovarian): 20.6 µM
TGI (OVCAR-4 ovarian): 66.9 µM
GI50 (OVCAR-5 ovarian): 39.7 µM
TGI (OVCAR-5 ovarian): > 100 µM
GI50 (OVCAR-8 ovarian): 20.7 µM
TGI (OVCAR-8 ovarian): 62.7 µM
GI50 (PC-3 prostate): 23.9 µM
TGI (PC-3 prostate): > 100 µM
GI50 (RPMI-8226 leukemia): 19.5 µM
TGI (RPMI-8226 leukemia): > 100 µM
GI50 (SF-268 CNS): 20.6 µM
TGI (SF-268 CNS): 62.1 µM
GI50 (SF-295 CNS): 55.8 µM
TGI (SF-295 CNS): > 100 µM
GI50 (SF-539 CNS): 38.4 µM
TGI (SF-539 CNS): > 100 µM
GI50 (SK-MEL-2 melanoma): 33.5 µM
TGI (SK-MEL-2 melanoma): 99 µM
GI50 (SK-MEL-28 melanoma): 23.4 µM
TGI (SK-MEL-28 melanoma): 74.7 µM
GI50 (SK-MEL-5 melanoma): 22 µM
TGI (SK-MEL-5 melanoma): > 100 µM
GI50 (SK-OV-3 ovarian): 24.3 µM
TGI (SK-OV-3 ovarian): 65.6 µM
GI50 (SN12C renal): 32.5 µM
TGI (SN12C renal): > 100 µM
GI50 (SNB-19 CNS): 47 µM
TGI (SNB-19 CNS): > 100 µM
GI50 (SNB-75 CNS): 1.52 µM
TGI (SNB-75 CNS): 27 µM
GI50 (SR leukemia): 10.6 µM
TGI (SR leukemia): 23 µM
GI50 (SW-620 colon): 42.3 µM
TGI (SW-620 colon): > 100 µM
GI50 (T-47D breast): 18.1 µM
TGI (T-47D breast): 62.9 µM
GI50 (TK-10 renal): 28.5 µM
TGI (TK-10 renal): 62.4 µM
GI50 (U251 CNS): 18.8 µM
TGI (U251 CNS): 43.2 µM
GI50 (UACC-257 melanoma): 24.7 µM
TGI (UACC-257 melanoma): 98.9 µM
GI50 (UACC-62 melanoma): 17.3 µM
TGI (UACC-62 melanoma): > 100 µM
GI50 (UO-31 renal): 14.7 µM
TGI (UO-31 renal): 96.7 µM

Source: PubChem BioAssay (NCI)
